Consider two compounds from patent US12448358B2, “Inhibitors of protein arginine deiminase 1 and methods of preparation and use thereof” (University of Massachusetts, priority 2019, dated 2025).

Read-outs that look alike come from different tables or passages of the source.

Holding throughout (type): biochemical
Assay [1] concerns the target T1, PAD2 (Homo sapiens, UniProt Q9Y2J8).
T1 construct: made in house
Briefly: Inactivation kinetics of PAD2 (COLDER citrulline assay). The conditions noted are these: for Fold PAD selectivity: bracketed value under kinact/KI; for kinact/KI: marks: * nonlinear fit of kobs versus [I], ‡ linear fit, † single kobs. How it is done: (§1) Inactivation kinetics. […] After 15 min, reactions were quenched with liquid nitrogen and the production of citrulline was quantified using the COLDER assay. (Kearney, et al. Biochemistry 2005, 44, 10570-10582; Knipp, et al. Anal. Biochem. 2000, 286, 257-264.) The time-dependence of PAD inhibition was fit to the following equation 1, […] (1), using Grafit, version 5.0.11, where v is velocity, ν0 is initial velocity, k (or kobs is the pseudo-first-order rate constant of inactivation, and t is time. Upon reaching saturation, the concentration dependence of kobs was fit to equation 2, kobs=kinact[I]/(KI+[I]), (2), using Grafit, version 5.0.11, where kinact is the maximal rate of inactivation, KI is the concentration of inhibitor that affords half-maximal inactivation, and [I] is the concentration of inhibitor. When kobs with [I] varied linearly, kinact/KI was determined from the slope of the line. All the experiments were performed at least in duplicate.

Assay [2] concerns the target T2, PAD1 (Homo sapiens, UniProt Q9ULC6).
T2 construct: made in house
T2 sequence (Q9ULC6 1-663): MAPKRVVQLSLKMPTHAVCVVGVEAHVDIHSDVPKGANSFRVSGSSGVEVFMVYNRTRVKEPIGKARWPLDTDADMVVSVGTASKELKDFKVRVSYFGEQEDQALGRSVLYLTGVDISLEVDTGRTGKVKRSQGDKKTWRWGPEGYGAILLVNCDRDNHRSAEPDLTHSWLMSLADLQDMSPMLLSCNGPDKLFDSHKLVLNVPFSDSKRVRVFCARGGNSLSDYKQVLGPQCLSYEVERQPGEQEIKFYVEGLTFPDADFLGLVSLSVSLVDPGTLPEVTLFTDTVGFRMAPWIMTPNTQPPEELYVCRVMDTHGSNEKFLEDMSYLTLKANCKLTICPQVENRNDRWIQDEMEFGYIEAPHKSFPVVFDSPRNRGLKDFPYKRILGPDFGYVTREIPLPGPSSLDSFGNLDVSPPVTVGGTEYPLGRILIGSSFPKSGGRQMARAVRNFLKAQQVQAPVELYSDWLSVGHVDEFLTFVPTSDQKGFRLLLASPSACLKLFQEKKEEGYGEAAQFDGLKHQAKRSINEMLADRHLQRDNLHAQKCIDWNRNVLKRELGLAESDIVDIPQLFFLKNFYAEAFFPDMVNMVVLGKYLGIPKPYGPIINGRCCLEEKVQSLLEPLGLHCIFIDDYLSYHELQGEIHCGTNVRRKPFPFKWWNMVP
Briefly: Inactivation kinetics of PAD1 (COLDER citrulline assay). The settings on record: for kinact/KI: PAD1, marks: * nonlinear fit of kobs versus [I], ‡ linear fit, † single kobs; for Fold PAD selectivity: PAD1 over the other PADs, bracketed value under kinact/KI. How it is done:
as §1

Assay [3] concerns the target T3, PAD4 (Homo sapiens, UniProt Q9UM07).
T3 construct: made in house
Briefly: Inactivation kinetics of PAD4 (COLDER citrulline assay). The conditions noted are these: for Fold PAD selectivity: bracketed value under kinact/KI; for kinact/KI: marks: * nonlinear fit of kobs versus [I], ‡ linear fit, † single kobs. How it is done: as §1

Assay [4] addresses T4, PAD3 (Homo sapiens, UniProt Q9ULW8).
T4 construct: made in house
T4 sequence (Q9ULW8 1-664): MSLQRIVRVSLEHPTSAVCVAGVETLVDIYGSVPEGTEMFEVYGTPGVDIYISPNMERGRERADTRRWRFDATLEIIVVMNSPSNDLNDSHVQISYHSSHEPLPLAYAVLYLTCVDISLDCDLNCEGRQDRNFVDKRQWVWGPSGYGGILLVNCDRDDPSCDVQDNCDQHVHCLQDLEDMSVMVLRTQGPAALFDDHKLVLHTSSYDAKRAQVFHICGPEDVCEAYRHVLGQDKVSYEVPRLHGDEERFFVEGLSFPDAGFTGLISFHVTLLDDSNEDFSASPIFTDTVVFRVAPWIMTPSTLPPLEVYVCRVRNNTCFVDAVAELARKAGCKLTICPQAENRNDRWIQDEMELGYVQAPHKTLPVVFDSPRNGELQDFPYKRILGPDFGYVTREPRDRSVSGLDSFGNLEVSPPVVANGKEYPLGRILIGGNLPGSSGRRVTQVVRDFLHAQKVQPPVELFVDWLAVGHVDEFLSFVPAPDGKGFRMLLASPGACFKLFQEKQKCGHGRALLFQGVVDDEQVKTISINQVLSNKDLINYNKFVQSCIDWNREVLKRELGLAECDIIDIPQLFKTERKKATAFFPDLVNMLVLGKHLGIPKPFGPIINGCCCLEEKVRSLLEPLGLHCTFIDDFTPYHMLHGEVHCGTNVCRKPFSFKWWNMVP
The experiment in a line: Inactivation kinetics of PAD3 (COLDER citrulline assay). The conditions noted are these: for Fold PAD selectivity: bracketed value under kinact/KI; for kinact/KI: marks: * nonlinear fit of kobs versus [I], ‡ linear fit, † single kobs. How it is done: as §1

Where [5] appears, read: read-out: kinact/KI (converted).

T3 sequence (Q9UM07 whole entry): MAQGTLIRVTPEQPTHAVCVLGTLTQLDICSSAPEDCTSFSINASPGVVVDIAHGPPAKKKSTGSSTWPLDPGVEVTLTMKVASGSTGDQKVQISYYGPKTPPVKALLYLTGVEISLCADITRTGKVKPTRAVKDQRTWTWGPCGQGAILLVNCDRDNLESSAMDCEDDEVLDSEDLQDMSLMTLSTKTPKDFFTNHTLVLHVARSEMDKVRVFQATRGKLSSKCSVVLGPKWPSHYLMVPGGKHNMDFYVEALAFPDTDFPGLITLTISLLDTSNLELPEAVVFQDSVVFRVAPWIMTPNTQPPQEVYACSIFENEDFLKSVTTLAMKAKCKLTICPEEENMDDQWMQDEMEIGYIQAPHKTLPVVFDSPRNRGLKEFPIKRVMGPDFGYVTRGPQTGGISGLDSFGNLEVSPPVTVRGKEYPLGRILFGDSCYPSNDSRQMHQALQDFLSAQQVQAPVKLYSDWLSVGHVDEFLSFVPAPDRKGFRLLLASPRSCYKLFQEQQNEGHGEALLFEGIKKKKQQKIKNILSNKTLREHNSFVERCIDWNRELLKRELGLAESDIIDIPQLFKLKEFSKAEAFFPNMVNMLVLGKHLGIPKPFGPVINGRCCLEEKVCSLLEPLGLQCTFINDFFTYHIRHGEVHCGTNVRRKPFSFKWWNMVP
T1 sequence (Q9Y2J8 whole entry): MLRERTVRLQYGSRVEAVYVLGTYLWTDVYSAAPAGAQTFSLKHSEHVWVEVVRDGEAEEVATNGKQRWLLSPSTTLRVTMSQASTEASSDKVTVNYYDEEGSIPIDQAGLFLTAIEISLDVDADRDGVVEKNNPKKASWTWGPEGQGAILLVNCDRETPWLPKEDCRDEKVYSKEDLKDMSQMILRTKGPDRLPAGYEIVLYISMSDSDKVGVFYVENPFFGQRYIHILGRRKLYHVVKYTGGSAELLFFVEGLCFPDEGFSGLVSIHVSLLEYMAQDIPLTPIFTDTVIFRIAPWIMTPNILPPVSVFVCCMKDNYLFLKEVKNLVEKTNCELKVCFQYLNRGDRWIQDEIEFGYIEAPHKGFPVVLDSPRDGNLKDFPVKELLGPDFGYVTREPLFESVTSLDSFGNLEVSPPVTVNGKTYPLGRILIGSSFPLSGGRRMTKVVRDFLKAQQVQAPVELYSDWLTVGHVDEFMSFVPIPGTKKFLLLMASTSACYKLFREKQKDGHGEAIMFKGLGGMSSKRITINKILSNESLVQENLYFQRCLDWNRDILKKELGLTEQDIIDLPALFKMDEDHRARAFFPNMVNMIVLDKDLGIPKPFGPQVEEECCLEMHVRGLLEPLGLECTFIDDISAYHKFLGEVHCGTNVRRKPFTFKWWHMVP

The term kinact denotes the rate constant of inactivation at saturating inhibitor. For the compound `N=C(CCl)NCCC[C@H](NC(=O)c1ccccc1O)c1nc2ccccc2[nH]1` [Compound 8], the “Fold PAD selectivity” value in assay [1] is “[5] fold”; in assay [2], “[1] fold”; in assay [3], “[68] fold”; in assay [4], “[18] fold”. Besides, the kinact/KI was 46.7 M⁻¹ s⁻¹ in assay [1] (setting [5]), 10 M⁻¹ s⁻¹ in assay [2] (setting [5]), 684 M⁻¹ s⁻¹ in assay [3] (setting [5]) and 176 M⁻¹ s⁻¹ in assay [4] (setting [5]). The compound further registered a Ki in assay [3] (concentration of inhibitor that affords half-maximal inactivation) of 25.1 µM. Moreover, the kinact in assay [3] (read-out: kinact (converted)) was 0.0172 s⁻¹.

For the compound `CC(C)c1cc(C(=O)N[C@@H](CCCNC(=N)CF)c2nc3ccccc3[nH]2)c(O)c(C(C)C)c1` [Compound 9], the “Fold PAD selectivity” value in assay [1] was “[2] fold”; in assay [2], “[1] fold”; in assay [3] it was “[1] fold”; in assay [4] it was “[3] fold”. The kinact/KI is on record as 400 ± 30^† M^−1min^−1 in assay [1], 190 ± 20^† M^−1min^−1 in assay [2], 240 ± 20^† M^−1min^−1 in assay [3] and 580 ± 120^† M^−1min^−1 in assay [4].
